Reference: ChEMBL document CHEMBL4507302, “Data for DCP probe TP-020” (2021)

Experiments:
[1] = target: Serine/threonine-protein kinase ULK1 (Homo sapiens) (UniProt O75385); settings: Compound concentration 1000.0 nM
[2] = target: Tyrosine-protein kinase ABL1 (Homo sapiens) (UniProt P00519); settings: Compound concentration 1000.0 nM
[3] = target: Ribosomal protein S6 kinase alpha-5 (Homo sapiens) (UniProt O75582); settings: Compound concentration 1000.0 nM
[4] = target: Casein kinase I isoform alpha (Homo sapiens) (UniProt P48729); settings: Compound concentration 1000.0 nM
[5] = target: LIM domain kinase 1 (Homo sapiens) (UniProt P53667); settings: Compound concentration 1000.0 nM
[6] = target: 5-hydroxytryptamine receptor 3A (Homo sapiens) (UniProt P46098); settings: Compound concentration 10.0 uM
[7] = target: Protein-tyrosine kinase 2-beta (Homo sapiens) (UniProt Q14289); settings: Compound concentration 1000.0 nM
[8] = target: Mitogen-activated protein kinase 7 (Homo sapiens) (UniProt Q13164); settings: Compound concentration 1000.0 nM
[9] = tested on: Mast/stem cell growth factor receptor Kit (Homo sapiens), P10721 [L576P]; settings: Compound concentration 1000.0 nM
[10] = target: Mitogen-activated protein kinase kinase kinase 6 (Homo sapiens) (UniProt O95382); settings: Compound concentration 1000.0 nM
Mitogen-activated protein kinase kinase kinase 6 (Homo sapiens), sequence (O95382 whole entry): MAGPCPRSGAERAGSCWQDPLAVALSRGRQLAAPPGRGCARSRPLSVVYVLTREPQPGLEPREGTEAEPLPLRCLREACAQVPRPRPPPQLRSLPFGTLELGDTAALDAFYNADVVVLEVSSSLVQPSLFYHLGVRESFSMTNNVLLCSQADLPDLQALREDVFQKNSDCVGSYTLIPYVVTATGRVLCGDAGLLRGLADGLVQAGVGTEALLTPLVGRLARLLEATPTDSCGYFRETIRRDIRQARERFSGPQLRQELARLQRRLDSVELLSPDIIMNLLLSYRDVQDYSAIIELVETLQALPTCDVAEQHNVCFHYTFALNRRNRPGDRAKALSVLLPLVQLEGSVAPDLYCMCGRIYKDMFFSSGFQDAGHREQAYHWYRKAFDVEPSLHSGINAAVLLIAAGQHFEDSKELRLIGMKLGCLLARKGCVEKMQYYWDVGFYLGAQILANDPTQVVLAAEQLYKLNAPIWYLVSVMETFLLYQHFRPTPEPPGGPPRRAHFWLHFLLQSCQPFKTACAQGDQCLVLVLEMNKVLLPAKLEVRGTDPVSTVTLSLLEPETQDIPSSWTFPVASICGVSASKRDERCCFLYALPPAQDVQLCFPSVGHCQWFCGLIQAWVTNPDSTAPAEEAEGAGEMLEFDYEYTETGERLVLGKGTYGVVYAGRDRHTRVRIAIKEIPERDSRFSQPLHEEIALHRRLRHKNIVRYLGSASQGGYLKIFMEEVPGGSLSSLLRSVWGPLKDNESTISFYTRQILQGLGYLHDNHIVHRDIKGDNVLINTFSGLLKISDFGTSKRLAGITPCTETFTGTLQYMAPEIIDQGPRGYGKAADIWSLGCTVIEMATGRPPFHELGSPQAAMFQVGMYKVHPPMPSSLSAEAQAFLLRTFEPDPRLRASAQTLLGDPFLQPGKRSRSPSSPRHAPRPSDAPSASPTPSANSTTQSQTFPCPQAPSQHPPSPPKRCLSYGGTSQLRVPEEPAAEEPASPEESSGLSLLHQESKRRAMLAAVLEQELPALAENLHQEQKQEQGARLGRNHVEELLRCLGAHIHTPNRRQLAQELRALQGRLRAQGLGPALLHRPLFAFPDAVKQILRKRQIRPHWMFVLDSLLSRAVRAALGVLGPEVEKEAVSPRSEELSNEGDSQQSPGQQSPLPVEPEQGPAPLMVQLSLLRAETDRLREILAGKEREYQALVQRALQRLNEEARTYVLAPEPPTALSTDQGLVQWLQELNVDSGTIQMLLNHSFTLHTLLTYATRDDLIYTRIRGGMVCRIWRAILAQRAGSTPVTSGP

[11] = target: Protein kinase C delta type (Homo sapiens) (UniProt Q05655); settings: Compound concentration 1000.0 nM
[12] = target: Serine/threonine-protein kinase 4 (Homo sapiens) (UniProt Q13043); settings: Compound concentration 1000.0 nM
[13] = target: Focal adhesion kinase 1 (Homo sapiens) (UniProt Q05397); settings: Compound concentration 1000.0 nM
[14] = target: Mu-type opioid receptor (Homo sapiens) (UniProt P35372); settings: Compound concentration 10.0 uM
[15] = tested on: Epidermal growth factor receptor (Homo sapiens), P00533 [UNDEFINED MUTATION]; settings: Compound concentration 1000.0 nM
[16] = target: Tyrosine-protein kinase JAK1 (Homo sapiens) (UniProt P23458); settings: Compound concentration 1000.0 nM
[17] = target: Tyrosine-protein kinase Fyn (Homo sapiens) (UniProt P06241); settings: Compound concentration 1000.0 nM
[18] = target: Fibroblast growth factor receptor 3 (Homo sapiens) (UniProt P22607); settings: Compound concentration 1000.0 nM
[19] = target: NT-3 growth factor receptor (Homo sapiens) (UniProt Q16288); settings: Compound concentration 1000.0 nM
[20] = target: Dual specificity mitogen-activated protein kinase kinase 7 (Homo sapiens) (UniProt O14733); settings: Compound concentration 1000.0 nM
Dual specificity mitogen-activated protein kinase kinase 7 (Homo sapiens), sequence (O14733 whole entry): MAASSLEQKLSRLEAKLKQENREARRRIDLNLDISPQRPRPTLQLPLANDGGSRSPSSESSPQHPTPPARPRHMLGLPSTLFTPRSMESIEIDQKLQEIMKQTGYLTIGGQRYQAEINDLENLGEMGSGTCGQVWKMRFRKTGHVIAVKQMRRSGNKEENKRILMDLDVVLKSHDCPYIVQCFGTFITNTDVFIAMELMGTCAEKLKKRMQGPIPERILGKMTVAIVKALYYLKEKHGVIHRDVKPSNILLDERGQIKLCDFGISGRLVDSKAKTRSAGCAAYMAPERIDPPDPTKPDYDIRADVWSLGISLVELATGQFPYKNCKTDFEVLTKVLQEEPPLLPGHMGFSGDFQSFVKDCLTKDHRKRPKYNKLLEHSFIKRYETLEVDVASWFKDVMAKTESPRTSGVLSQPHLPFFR

[21] = target: Dual specificity protein kinase CLK4 (Homo sapiens) (UniProt Q9HAZ1); settings: Compound concentration 1000.0 nM
[22] = target: Serine/threonine-protein kinase LATS2 (Homo sapiens) (UniProt Q9NRM7); settings: Compound concentration 1000.0 nM
[23] = target: Mitogen-activated protein kinase 1 (Homo sapiens) (UniProt P28482); settings: Compound concentration 1000.0 nM
Mitogen-activated protein kinase 1 (Homo sapiens), sequence (P28482 whole entry): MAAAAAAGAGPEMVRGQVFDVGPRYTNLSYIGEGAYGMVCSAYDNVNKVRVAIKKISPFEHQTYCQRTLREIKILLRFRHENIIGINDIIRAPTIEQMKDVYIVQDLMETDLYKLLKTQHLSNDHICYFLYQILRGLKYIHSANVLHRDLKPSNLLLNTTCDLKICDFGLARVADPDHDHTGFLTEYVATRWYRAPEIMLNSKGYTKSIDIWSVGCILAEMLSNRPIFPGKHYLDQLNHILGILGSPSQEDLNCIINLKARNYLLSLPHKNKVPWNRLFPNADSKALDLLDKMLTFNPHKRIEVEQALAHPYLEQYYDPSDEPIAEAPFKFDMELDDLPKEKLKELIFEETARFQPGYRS

[24] = target: Testis-specific serine/threonine-protein kinase 3 (Homo sapiens) (UniProt Q96PN8); settings: Compound concentration 1000.0 nM
Testis-specific serine/threonine-protein kinase 3 (Homo sapiens), sequence (Q96PN8 whole entry): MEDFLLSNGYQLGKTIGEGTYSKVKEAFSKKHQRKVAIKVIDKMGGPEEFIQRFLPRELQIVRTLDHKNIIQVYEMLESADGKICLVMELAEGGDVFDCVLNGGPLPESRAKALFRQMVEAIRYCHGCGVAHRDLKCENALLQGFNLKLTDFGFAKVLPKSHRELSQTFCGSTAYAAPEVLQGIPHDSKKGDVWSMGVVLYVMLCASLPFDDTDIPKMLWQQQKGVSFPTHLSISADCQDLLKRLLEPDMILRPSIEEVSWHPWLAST

[25] = target: Casein kinase II subunit alpha' (Homo sapiens) (UniProt P19784); settings: Compound concentration 1000.0 nM
[26] = target: Calcium/calmodulin-dependent protein kinase type II subunit beta (Homo sapiens) (UniProt Q13554); settings: Compound concentration 1000.0 nM
[27] = target: Phosphatidylinositol 5-phosphate 4-kinase type-2 gamma (Homo sapiens) (UniProt Q8TBX8); settings: Compound concentration 1000.0 nM
[28] = target: Tyrosine-protein kinase Lyn (Homo sapiens) (UniProt P07948); settings: Compound concentration 1000.0 nM
[29] = target: Serine/threonine-protein kinase 16 (Homo sapiens) (UniProt O75716); settings: Compound concentration 1000.0 nM
[30] = target: STE20-like serine/threonine-protein kinase (Homo sapiens) (UniProt Q9H2G2); settings: Compound concentration 1000.0 nM
[31] = target: Casein kinase I isoform gamma-3 (Homo sapiens) (UniProt Q9Y6M4); settings: Compound concentration 1000.0 nM
[32] = target: Mitogen-activated protein kinase kinase kinase 12 (Homo sapiens) (UniProt Q12852); settings: Compound concentration 1000.0 nM
[33] = target: Serine/threonine-protein kinase MAK (Homo sapiens) (UniProt P20794); settings: Compound concentration 1000.0 nM
Serine/threonine-protein kinase MAK (Homo sapiens), sequence (P20794 whole entry): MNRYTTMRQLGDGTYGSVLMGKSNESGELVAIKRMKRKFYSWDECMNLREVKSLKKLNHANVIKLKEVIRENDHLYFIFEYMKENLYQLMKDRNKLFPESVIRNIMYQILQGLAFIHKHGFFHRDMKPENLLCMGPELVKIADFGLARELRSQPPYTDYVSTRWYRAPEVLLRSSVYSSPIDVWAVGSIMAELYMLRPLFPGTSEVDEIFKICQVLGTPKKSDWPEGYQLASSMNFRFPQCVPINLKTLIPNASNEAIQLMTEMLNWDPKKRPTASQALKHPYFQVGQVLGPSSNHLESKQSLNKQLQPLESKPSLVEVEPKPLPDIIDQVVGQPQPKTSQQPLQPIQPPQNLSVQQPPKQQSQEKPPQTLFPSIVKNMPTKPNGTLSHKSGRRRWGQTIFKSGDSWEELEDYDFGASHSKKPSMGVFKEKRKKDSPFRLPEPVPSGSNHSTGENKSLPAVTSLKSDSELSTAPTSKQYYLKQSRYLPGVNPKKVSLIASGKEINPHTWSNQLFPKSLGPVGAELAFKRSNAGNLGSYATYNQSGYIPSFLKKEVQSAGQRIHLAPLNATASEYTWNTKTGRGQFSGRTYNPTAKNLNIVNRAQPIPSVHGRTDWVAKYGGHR

[34] = target: Beta-adrenergic receptor kinase 1 (Homo sapiens) (UniProt P25098); settings: Compound concentration 1000.0 nM
[35] = tested on: Mast/stem cell growth factor receptor Kit (Homo sapiens), P10721 [V559D,V654A]; settings: Compound concentration 1000.0 nM
[36] = target: Cyclin-G-associated kinase (Homo sapiens) (UniProt O14976); settings: Compound concentration 1000.0 nM
[37] = target: Serine/threonine-protein kinase TBK1 (Homo sapiens) (UniProt Q9UHD2); settings: Compound concentration 1000.0 nM
[38] = target: MAP/microtubule affinity-regulating kinase 3 (Homo sapiens) (UniProt P27448); settings: Compound concentration 1000.0 nM
[39] = target: Fibroblast growth factor receptor 4 (Homo sapiens) (UniProt P22455); settings: Compound concentration 1000.0 nM
[40] = target: Serine/threonine-protein kinase 26 (Homo sapiens) (UniProt Q9P289); settings: Compound concentration 1000.0 nM
[41] = target: Macrophage-stimulating protein receptor (Homo sapiens) (UniProt Q04912); settings: Compound concentration 1000.0 nM
[42] = target: Mitogen-activated protein kinase kinase kinase 13 (Homo sapiens) (UniProt O43283); settings: Compound concentration 1000.0 nM
Mitogen-activated protein kinase kinase kinase 13 (Homo sapiens), sequence (O43283 whole entry): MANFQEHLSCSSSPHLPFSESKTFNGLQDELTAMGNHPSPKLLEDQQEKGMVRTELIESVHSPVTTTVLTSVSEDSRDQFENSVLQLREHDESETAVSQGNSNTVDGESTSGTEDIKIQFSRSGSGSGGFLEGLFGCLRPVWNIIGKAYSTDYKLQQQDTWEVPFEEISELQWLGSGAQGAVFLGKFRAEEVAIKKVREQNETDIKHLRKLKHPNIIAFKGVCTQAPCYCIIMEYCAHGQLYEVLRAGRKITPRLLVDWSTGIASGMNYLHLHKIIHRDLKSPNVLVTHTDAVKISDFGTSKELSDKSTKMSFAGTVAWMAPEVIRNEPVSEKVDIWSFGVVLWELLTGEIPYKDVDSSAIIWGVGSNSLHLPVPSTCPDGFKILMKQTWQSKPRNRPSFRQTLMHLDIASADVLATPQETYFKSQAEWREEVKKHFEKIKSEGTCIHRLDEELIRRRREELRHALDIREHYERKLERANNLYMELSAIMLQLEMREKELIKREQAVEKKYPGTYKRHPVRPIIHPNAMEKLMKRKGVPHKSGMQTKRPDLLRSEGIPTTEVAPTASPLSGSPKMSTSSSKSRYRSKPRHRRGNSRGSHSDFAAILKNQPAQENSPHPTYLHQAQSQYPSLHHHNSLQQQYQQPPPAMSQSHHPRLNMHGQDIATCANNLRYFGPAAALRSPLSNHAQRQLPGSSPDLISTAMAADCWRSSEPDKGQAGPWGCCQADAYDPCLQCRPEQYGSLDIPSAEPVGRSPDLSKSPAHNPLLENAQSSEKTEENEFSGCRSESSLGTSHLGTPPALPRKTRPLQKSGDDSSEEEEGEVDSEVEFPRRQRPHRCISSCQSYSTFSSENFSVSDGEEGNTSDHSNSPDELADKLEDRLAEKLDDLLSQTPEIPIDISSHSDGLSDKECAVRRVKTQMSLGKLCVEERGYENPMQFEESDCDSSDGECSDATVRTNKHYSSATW

[43] = target: 5-hydroxytryptamine receptor 2B (Homo sapiens) (UniProt P41595); settings: Compound concentration 10.0 uM
5-hydroxytryptamine receptor 2B (Homo sapiens), sequence (P41595 whole entry): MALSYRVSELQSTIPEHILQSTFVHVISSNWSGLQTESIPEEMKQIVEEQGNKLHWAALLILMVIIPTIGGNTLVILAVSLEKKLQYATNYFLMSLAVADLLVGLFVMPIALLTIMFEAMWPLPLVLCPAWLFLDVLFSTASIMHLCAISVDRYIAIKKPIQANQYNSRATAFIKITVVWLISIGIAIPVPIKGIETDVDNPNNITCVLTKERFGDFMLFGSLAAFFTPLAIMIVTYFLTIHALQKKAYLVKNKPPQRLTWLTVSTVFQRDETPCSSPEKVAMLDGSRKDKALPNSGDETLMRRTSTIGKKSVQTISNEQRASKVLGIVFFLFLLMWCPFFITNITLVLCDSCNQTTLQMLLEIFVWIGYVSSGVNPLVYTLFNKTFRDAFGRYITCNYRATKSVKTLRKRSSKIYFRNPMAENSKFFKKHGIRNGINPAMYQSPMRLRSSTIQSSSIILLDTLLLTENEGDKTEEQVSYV

[44] = target: Serine/threonine-protein kinase STK11 (Homo sapiens) (UniProt Q15831); settings: Compound concentration 1000.0 nM
Serine/threonine-protein kinase STK11 (Homo sapiens), sequence (Q15831 whole entry): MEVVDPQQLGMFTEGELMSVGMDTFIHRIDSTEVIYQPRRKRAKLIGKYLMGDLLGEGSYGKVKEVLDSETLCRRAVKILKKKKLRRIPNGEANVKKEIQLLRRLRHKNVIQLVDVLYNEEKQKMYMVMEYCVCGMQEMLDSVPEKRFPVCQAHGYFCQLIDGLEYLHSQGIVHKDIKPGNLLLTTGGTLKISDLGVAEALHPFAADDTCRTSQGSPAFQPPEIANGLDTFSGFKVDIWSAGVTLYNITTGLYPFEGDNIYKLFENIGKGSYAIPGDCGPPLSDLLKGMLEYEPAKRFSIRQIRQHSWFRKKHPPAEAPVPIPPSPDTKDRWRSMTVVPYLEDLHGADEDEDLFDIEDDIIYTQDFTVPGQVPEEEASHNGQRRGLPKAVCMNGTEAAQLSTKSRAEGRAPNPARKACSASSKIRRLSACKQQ

[45] = target: Muscle, skeletal receptor tyrosine-protein kinase (Homo sapiens) (UniProt O15146); settings: Compound concentration 1000.0 nM

## Nc1cnc(N2CCc3cc(S(=O)(=O)Nc4c(F)cc(Cl)cc4F)cc(N4CCCC4=O)c32)nc1
[1]
  residual activity: 95%
[2]
  residual activity: 97%
[3]
  residual activity: 95%
[4]
  residual activity: 100%
[5]
  residual activity: 100%
[6]
  inhibition: 0.32%
[7]
  residual activity: 100%
[8]
  residual activity: 100%
[9]
  residual activity: 83%
[10]
  residual activity: 75%
[11]
  residual activity: 86%
[12]
  residual activity: 100%
[13]
  residual activity: 99%
[14]
  inhibition: -1.31%
[15]
  residual activity: 63%
[16]
  residual activity: 100%
[17]
  residual activity: 58%
[18]
  residual activity: 100%
[19]
  residual activity: 97%
[20]
  residual activity: 100%
[21]
  residual activity: 89%
[22]
  residual activity: 100%
[23]
  residual activity: 100%
[24]
  residual activity: 100%
[25]
  residual activity: 98%
[26]
  residual activity: 100%
[27]
  residual activity: 100%
[28]
  residual activity: 88%
[29]
  residual activity: 100%
[30]
  residual activity: 100%
[31]
  residual activity: 78%
[32]
  residual activity: 100%
[33]
  residual activity: 96%
[34]
  residual activity: 100%
[35]
  residual activity: 100%
[36]
  residual activity: 100%
[37]
  residual activity: 85%
[38]
  residual activity: 100%
[39]
  residual activity: 100%
[40]
  residual activity: 83%
[41]
  residual activity: 98%
[42]
  residual activity: 100%
[43]
  inhibition: 12.9%
[44]
  residual activity: 100%
[45]
  residual activity: 100%

## Cn1nc(C(F)(F)F)cc1-c1cnc(N2CCc3cc(S(=O)(=O)Nc4c(F)cc(Cl)cc4F)cc(N4CCCC4=O)c32)nc1 [TP-020]
[1]
  residual activity: 79%
[2]
  residual activity: 95%
[3]
  residual activity: 86%
[4]
  residual activity: 86%
[5]
  residual activity: 100%
[6]
  inhibition: 7.45%
[7]
  residual activity: 100%
[8]
  residual activity: 100%
[9]
  residual activity: 93%
[10]
  residual activity: 67%
[11]
  residual activity: 95%
[12]
  residual activity: 92%
[13]
  residual activity: 98%
[14]
  inhibition: 9.44%
[15]
  residual activity: 100%
[16]
  residual activity: 100%
[17]
  residual activity: 94%
[18]
  residual activity: 100%
[19]
  residual activity: 98%
[20]
  residual activity: 98%
[21]
  residual activity: 90%
[22]
  residual activity: 93%
[23]
  residual activity: 100%
[24]
  residual activity: 94%
[25]
  residual activity: 84%
[26]
  residual activity: 92%
[27]
  residual activity: 66%
[28]
  residual activity: 100%
[29]
  residual activity: 92%
[30]
  residual activity: 100%
[31]
  residual activity: 81%
[32]
  residual activity: 72%
[33]
  residual activity: 100%
[34]
  residual activity: 85%
[35]
  residual activity: 89%
[36]
  residual activity: 94%
[37]
  residual activity: 95%
[38]
  residual activity: 12%
[39]
  residual activity: 69%
[40]
  residual activity: 73%
[41]
  residual activity: 100%
[42]
  residual activity: 79%
[43]
  inhibition: 24.7%
[44]
  residual activity: 100%
[45]
  residual activity: 87%
